Test results taken from patent US20100234238A1, “METHOD FOR PROFILING KINASE INHIBITORS” (Janssen Pharmaceutica N V, priority 2006, published 2010).

How the values were obtained:
Her2 = Her2 (Homo sapiens, UniProt P04626); experiment: Her2 inhibition; type: biochemical
xenograft tumors [1] = experiment: Response of subcutaneous xenograft tumors to MTKI in vivo; parameters: species or system nude immuno-compromised mice; key: R: A responder is predicted when minimally 4 peptides have a ratio <0.8; NR = Non-Responder to MTKI
Procedure: (§1) To explore whether a similar approach allows for the classification of responder and non-responder tumors, the same strategy as above was applied to 12 different xenograft tumors, which were subcutaneously grown in nude immuno-compromised mice from human cancer cell lines. […] Lysates were made from homogenized frozen tumor blocks and analyzed in the absence or presence of 5 μM MTKI, as before.

[2] = tested on: 27 cell lines, representing diverse cancer cell types; experiment: Inhibition of proliferation of cell lines in vitro (response status); type: cell-based; parameters: key: R: A responder is predicted when minimally 4 peptides have a ratio <0.8; NR = Non-Responder to MTKI; conditions: MTKI
Procedure: It was tested whether the Pamchip peptide arrays are a useful tool to predict the response of a cell line to the multi-targeted kinase inhibitor, MTKI. MTKI inhibits the proliferation of a range of cell lines in vitro with widely varying IC50's. The lysates prepared from these 27 cell lines, representing diverse cancer cell types, were profiled on the peptide arrays in the absence or presence of 5 μM MTKI, in 6 replicates for each condition. In this panel, 13 cell lines were defined as responder cell lines (IC50<3 μM; cell lines are ordered according to increasing IC50 in Example 1, whereas 14 cell lines are classified as ‘non-responder’ cell lines (IC50>10 μM). Intermediary cell lines and cell lines with highly variable IC50 measurements were omitted from the analysis. The experiment included the highly responsive H3255 lung cancer cell line, which overexpresses mutant EGFR L858R. This mutant variant is highly responsive to MTKI, which is an ATP-competitive compound that binds to the active conformation of EGFR (similar to erlotinib and gefitinib). Accordingly, the most profound changes induced by MTKI in lysate kinase activity can be observed for this highly responsive cell line. […]

EGFR L858R = EGFR L858R (Homo sapiens, UniProt P00533, L858R); experiment: IC50 on mutant EGFR; type: biochemical
xenograft tumors [3] = experiment: Response of subcutaneous xenograft tumors to MTKI in vivo; parameters: species or system nude immuno-compromised mice; key: R = Responder to MTKI; NR = Non-Responder to MTKI
Procedure: as §1

Sequence of EGFR L858R (P00533 25-1210 L858R): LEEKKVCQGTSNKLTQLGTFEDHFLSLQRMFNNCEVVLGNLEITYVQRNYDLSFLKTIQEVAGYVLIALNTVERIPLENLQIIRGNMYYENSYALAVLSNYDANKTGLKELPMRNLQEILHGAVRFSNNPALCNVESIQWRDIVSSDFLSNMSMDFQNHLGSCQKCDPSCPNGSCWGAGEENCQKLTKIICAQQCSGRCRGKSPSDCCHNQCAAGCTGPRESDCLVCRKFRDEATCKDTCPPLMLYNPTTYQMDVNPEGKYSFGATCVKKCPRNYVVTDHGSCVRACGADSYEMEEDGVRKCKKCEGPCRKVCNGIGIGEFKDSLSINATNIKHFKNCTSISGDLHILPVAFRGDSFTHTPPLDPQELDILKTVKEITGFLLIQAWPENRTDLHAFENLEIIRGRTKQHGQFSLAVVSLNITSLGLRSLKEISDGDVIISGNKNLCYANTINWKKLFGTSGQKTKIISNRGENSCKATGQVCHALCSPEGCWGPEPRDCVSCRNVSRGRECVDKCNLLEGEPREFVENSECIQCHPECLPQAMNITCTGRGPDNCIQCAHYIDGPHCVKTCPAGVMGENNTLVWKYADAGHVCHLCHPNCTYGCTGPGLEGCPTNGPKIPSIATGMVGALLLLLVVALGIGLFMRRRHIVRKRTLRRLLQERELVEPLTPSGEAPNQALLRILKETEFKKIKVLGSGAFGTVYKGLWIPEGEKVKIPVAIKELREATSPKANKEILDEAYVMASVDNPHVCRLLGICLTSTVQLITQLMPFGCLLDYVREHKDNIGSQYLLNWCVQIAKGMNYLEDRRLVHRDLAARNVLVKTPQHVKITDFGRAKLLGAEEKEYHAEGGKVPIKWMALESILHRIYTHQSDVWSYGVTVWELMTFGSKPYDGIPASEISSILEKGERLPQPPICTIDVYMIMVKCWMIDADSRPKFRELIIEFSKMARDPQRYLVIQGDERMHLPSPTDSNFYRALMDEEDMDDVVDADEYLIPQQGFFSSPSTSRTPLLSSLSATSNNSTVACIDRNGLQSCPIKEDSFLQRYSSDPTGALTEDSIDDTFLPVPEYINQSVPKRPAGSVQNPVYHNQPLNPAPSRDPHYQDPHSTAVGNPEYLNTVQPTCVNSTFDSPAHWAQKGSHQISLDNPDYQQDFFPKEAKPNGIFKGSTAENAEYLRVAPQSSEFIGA
Sequence of Her2 (P04626 23-1255): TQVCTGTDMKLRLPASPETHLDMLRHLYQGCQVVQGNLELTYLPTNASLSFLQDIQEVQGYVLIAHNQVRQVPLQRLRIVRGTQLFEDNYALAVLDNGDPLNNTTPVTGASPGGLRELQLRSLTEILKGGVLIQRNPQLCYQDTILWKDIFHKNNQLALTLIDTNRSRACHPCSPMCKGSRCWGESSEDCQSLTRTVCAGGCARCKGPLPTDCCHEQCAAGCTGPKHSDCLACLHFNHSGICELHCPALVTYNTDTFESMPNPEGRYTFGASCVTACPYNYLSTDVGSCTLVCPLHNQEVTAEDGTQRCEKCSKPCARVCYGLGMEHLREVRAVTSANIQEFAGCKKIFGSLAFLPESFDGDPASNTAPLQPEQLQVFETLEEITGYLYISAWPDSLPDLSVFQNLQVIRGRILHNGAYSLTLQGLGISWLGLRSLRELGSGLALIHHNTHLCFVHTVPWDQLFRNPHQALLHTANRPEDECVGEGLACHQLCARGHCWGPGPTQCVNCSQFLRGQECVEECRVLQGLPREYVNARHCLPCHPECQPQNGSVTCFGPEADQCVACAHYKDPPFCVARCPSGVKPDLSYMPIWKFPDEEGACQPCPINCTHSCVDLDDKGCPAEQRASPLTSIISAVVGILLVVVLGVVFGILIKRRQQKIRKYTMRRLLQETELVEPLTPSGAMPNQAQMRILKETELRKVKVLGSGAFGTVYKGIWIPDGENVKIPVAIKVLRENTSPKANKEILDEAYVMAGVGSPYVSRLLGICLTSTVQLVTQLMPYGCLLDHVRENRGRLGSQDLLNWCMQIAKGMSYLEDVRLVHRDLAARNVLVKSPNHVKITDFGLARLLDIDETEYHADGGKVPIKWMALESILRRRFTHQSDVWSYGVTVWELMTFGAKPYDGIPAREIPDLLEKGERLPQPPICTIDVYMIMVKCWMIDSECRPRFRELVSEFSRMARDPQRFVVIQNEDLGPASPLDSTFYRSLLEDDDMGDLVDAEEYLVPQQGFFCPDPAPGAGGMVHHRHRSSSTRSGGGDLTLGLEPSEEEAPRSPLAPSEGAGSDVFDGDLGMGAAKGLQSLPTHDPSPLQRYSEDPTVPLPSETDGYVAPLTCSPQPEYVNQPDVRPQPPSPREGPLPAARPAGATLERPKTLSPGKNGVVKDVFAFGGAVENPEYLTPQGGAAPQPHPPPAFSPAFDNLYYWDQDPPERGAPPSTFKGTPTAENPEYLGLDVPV

inhibition of Her2 compared to Tarceva (Her2): better inhibitor than Tarceva
IC50 on EGFR 1858R compared to Tarceva (EGFR L858R): lower IC50
Compound: COc1cc2ncnc3c2cc1OCCCCCN(C)Cc1ccc(Br)cc1N3 [MTKI, 4,6-ethanediylidenepyrimido[4,5-b][6,1,12]benzoxadiazacyclopentadecine, 17-bromo-8,9,10,11,12,13,14,19-octahydro-20-methoxy-13-methyl-]
response status (xenograft tumors [1]; H441 xenograft tumor): NR
response status (xenograft tumors [1]; H460 xenograft tumor): NR
response status (xenograft tumors [1]; H1703 xenograft tumor): NR
response status (xenograft tumors [1]; HT29 xenograft tumor): NR
response status (xenograft tumors [1]; PC3 xenograft tumor): NR
response status (xenograft tumors [1]; SKOV3 xenograft tumor): NR
response status (xenograft tumors [1]; U87MG xenograft tumor): NR
response status ([2]; GTL16 cell line): NR
response status ([2]; MOLT4 cell line): NR
response status (xenograft tumors [3]; A431 xenograft tumor): R
response status (xenograft tumors [3]; BT474 xenograft tumor): R
response status (xenograft tumors [3]; DU145 xenograft tumor): R
response status (xenograft tumors [3]; H322 xenograft tumor): R
response status (xenograft tumors [3]; H3255 xenograft tumor): R
response status (xenograft tumors [3]; SUM149 xenograft tumor): R
